Data on 2 compounds can be found in patent US10160785B2, “Antimicrobial peptides and their use for the treatment of topical infections” (priority 2015, dated 2018).

A short description of series [1]: in vitro. To be noted: human. The procedure, abridged:
(§1)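 Hemolysis expressed as LC50, the concentration giving 50% erythrocyte lysis. Supernatant A540 was scaled between buffer-only blank and 0.2% Triton X100 total lysis after 1 h, 37 °C exposure of 5% v/v human red cells to 2-200 μmol.l^−1 peptide in physiological solution.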

Series [2] deals with S. aureus (Liberec) biofilm. The series is described as follows: Bacterial biofilm, remaining metabolic activity (MTT). To be noted: remaining metabolic activity of biofilm, 20 h. Format: cell-based, Staphylococcus aureus. The method, then:
(§2) Inoculum of S. aureus (Liberec) or P. aeruginosa (Liberec) cultivated overnight in BHI medium was diluted with fresh BHI medium containing 1% glucose to a final concentration to be ca. 10^8 CFU/ml. Then this was pipetted (100 μl) to 96-multiwell polystyrene plate which was incubated at 37° C. under rotary shaking (300 RPM) for 24 h. Medium without bacteria in the wells was used as a negative control. Supernatant from each well was drained and the biofilm formed on the bottom and on the walls of the wells was cautiously washed three times by sterile physiological solution (300 μl). The peptides tested in the concentrations of 1-128 μmol.l^−1 were prepared by twofold serial dilution of their stock solution (1 mmol.l^−1) in fresh BHI medium and then pipetted (100 μl) to the wells with formed biofilms. The biofilms covered by BHI medium without peptide were used as a positive control. The plates were then incubated for 20 h as described above. After that the liquid was drained out and wells were washed twice with sterile physiological solution.
(§3) The metabolic activity of surviving bacterial cells in the biofilm was determined by staining with MTT (3-(4,5-dimethylthiazol-2-yl)-2,5-diphenyl-2H-tetrazolium bromide) as follows: The mixture of BHI medium (100 μl) and 10 μl of the stock solution of MTT (5 mg/ml in physiological solution) was added to each well and the plate was incubated 40 min at 37° C. The liquid was drained out and the insoluble formazan crystals formed by reduction inside the biofilm were dissolved with dimethyl sulphoxide (100 μl). The intensity of staining in each well was measured as absorbance at 540 nm on a Tecan Infinite M200 Pro reader (Tecan GmbH, Austria). Remaining activity of surviving cells inside the biofilm was expressed for each well in percentage according to the following equation:
(§4) [formula] where A is the absorbance of the tested compound, ABL is the absorbance of the negative control, and AC is the absorbance of control biofilm.

Series [3] concerns P. aeruginosa (Liberec) biofilm. The description is as above. Format: cell-based, Pseudomonas aeruginosa. To be noted: remaining metabolic activity of biofilm, 20 h. The method, then:
as §2, §3, §4

The test system of series [4] is Candida albicans (Olomouc) biofilm. In words: C. albicans biofilm, remaining metabolic activity (XTT). Format: cell-based. The essentials: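 Candida albicans (Olomouc) biofilms grown 48 h at 37 °C in MOPS-buffered RPMI 1640 from 1×10^6 CFU inocula, then exposed 20 h to peptide at 0.39-200 μmol.l^−1. XTT/PMS staining for 90 min, A540; remaining metabolic activity expressed as percent of untreated biofilm after blank correction.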

Series [5] has as its system C. glabrata ATCC 2001. The series is described as follows: Lethal effect on yeast cells by plating test. Format: cell-based, Candida glabrata. To be noted: 15 minutes exposure, peptide alone, FIG. 1B. The procedure: C. glabrata ATCC 2001 cells were aerobically cultivated at 30° C. on YPD medium (Formedium) overnight. A small volume of inoculum was added to fresh YPD medium to final concentration of cells 5×10^6 CFU/ml (corresponding value OD600=0.2). Yeast cells were cultivated at 30° C. (190 rpm) until they reach early exponential growth phase, usually further 4-5 h. Cells were harvested, washed twice with distilled water (1.5 min, 3000 g) and resuspended in MES-TEA buffer (10 mM 4-morpholineethanesulphonic acid, pH 6.0 adjusted with triethanolamine, both chemicals from Sigma-Aldrich) to OD600=0.2.
Cells from the early exponential growth phase were washed twice with sterile distilled water (1.5 min, 3000 g) and resuspended in MES-TEA buffer to OD600=0.2. The cell suspension was divided into 1 ml aliquots in Eppendorf tubes. One sample served as a control, the tested compounds (peptides, ODDC) were added in selected concentrations to the rest of samples. Cells were incubated with drugs with occasional gentle stirring for 15 minutes, then 10 μl of cells were diluted 100-fold in distilled water and 15 μl aliquots were spread on 2% YPD agar (Formedium) plates (diameter of Petri plate 9 cm). The samples were always plated in triplicates. The number of colonies was determined after 24-h incubation of the plates at 30° C. […]

For series [6], the system named is Bacillus subtilis. To be noted: Bacillus subtilis; 37° C., 20 h. The essentials: (§5)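 Growth was followed by absorbance at 540 nm every 15 min over 20 h at 37 °C with shaking. Bacteria from exponential phase (ca 10^5 CFU per well) faced final peptide levels of 0.1 to 100 μmol.l^−1 in LB, and the MIC was read from growth inhibition.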
Series [7] concerns Candida albicans Olomouc. To be noted: Candida albicans Olomouc; YPD medium; 37° C., 20 h (Example 2).
Series [8] concerns Enterococcus faecalis Motol. The following applies: BHI medium, 37° C., 20 h.
Series [9] relates to Escherichia coli. The following applies: 37° C., 20 h. The procedure, abridged:
as §5

For series [10], the system named is Methicillin resistant Staphylococcus aureus (MRSA) 6271. The following applies: 37° C., 20 h. The procedure, abridged:
as §5

For series [11], the system named is Pseudomonas aeruginosa 5482. The following applies: 37° C., 20 h. The essentials:
as §5

The subject of series [12] is Pseudomonas aeruginosa Liberec. The following applies: Pseudomonas aeruginosa Liberec; 37° C., 20 h. The procedure, abridged: as §5
Series [13] deals with Staphylococcus aureus Liberec. The following applies: Staphylococcus aureus Liberec clinical isolate; 37° C., 20 h. The essentials:
as §5

The subject of series [14] is Staphylococcus aureus Motol. The following applies: Staphylococcus aureus Motol clinical isolate; 37° C., 20 h. The essentials:
as §5

For series [15], the system named is Staphylococcus epidermidis Motol. The following applies: 37° C., 20 h. The procedure, abridged: as §5
The test system of series [16] is human red blood cells. In words: in vitro. The following applies: read-out: Hemolytic activity LC50; lysis of 50% of human erythrocytes; 1 h at 37° C. The essentials: as §1
Where [17] appears, read: peptide concentration 8 μmol · l^−1.
Setting [18] is: peptide concentration 16 μmol · l^−1.
Where [19] appears, read: peptide concentration 32 μmol · l^−1.
[20] abbreviates: peptide concentration 64 μmol · l^−1.
Where [21] appears, read: peptide concentration 128 μmol · l^−1.

Where a SMILES comes first, the peptide text is derived from it. Some results are limits rather than exact numbers.

The compound `CC[C@@H](C)[C@@H](NC(=O)CN)C(=O)N[C@H](CCSC)C(=O)N[C@H](CO)C(=O)N[C@H](CO)C(=O)N[C@H](CC(C)C)C(=O)N[C@H](CCSC)C(=O)N[C@H](CCCCN)C(=O)N[C@H](CCCCN)C(=O)N[C@H](CC(C)C)C(=O)N[C@H](CCCCN)C(=O)N[C@H](CCCCN)C(=O)N[C@@H](C(=O)N[C@@H](C(=O)N[C@H](C)C(=O)N[C@H](CCCCN)C(N)=O)[C@H](C)CC)[C@H](C)CC` [II] (HELM PEPTIDE1{G.[dI].[dM].[dS].[dS].[dL].[dM].[dK].[dK].[dL].[dK].[dK].[dI].[dI].[dA].[dK].[am]}$$$$V2.0) yielded a CC50 at 1 h in series [1] greater than 400 µM. Besides, the “Metabolic activity (%) S. aureus (Liberec)” value amounted to 143.1% in series [2] (setting [17]); 138.8% in series [2] (setting [18]); 107.5% in series [2] (setting [19]); 29.9% in series [2] (setting [20]); 7.7% in series [2] (setting [21]). For the same compound, the “Metabolic activity (%) P. aeruginosa (Liberec)” value was 94.2% in series [3] (setting [17]); 100.5% in [3] (setting [18]); 79.1% in [3] (setting [19]); 33.0% in [3] (setting [20]); 26.7% in series [3] (setting [21]). Also, the “Metabolic activity of C. albicans (%)” value in series [4] (peptide concentration 6.25 μmol · l^−1, 20 hours) was determined as 105.3%; in series [4] (peptide concentration 12.5 μmol · l^−1, 20 hours) it was 114.2%; in series [4] (peptide concentration 25 μmol · l^−1, 20 hours), 35.2%; in series [4] (peptide concentration 50 μmol · l^−1, 20 hours) it was 1.0%; in series [4] (peptide concentration 100 μmol · l^−1, 20 hours), 0.0%; in series [4] (peptide concentration 200 μmol · l^−1, 20 hours), 0.0%. Further, the “antifungal (lethal) effect in plating test” value in [5] is “high antifungal effect”.

For “H-Gly-Ile-Leu-Ser-Ser-Leu-Trp-Lys-Lys-Leu-Lys-Lys-Ile-Ile-Ala-Lys-NH2 (H-GILSSLWKKLKKIIAK-NH2; also: D-amino acids (positions not given here)) [XIX]”, in series [6], the “Antimicrobial activity MIC B. s.” value stood at 2.0 µM. Also, the “Antimicrobial activity MIC C. a. Olomouc” value in series [7] was determined as 26.0 µM. Further, the “Antimicrobial activity MIC E. f. Motol” value in series [8] came out at 6.5 µM. In [9], the “Antimicrobial activity MIC E. c.” value is 13.0 µM. In addition, the “Antimicrobial activity MIC S. a. 6271” value in series [10] came out at 6.3 µM. Moreover, the “Antimicrobial activity MIC P. a. 5482” value in [11] stood at 6.3 µM. For the same compound, the “Antimicrobial activity MIC P. a. Liberec” value in [12] stood at 8.5 µM. For the same compound, in series [13], the “Antimicrobial activity MIC S. a. Liberec” value was found to be 3.2 µM. For the same compound, the “Antimicrobial activity MIC S. a. Motol” value in series [14] was 3.2 µM. For the same compound, the “Antimicrobial activity MIC S. e. Motol” value in series [15] amounted to 1.6 µM. The CC50 in [16] is greater than 200 µM. Besides, the “Metabolic activity (%) S. aureus (Liberec)” value in [2] (setting [17]) worked out at 72.8%; in series [2] (setting [18]), 2.8%; in [2] (setting [19]), 2.3%; in [2] (setting [20]), 2.3%; in [2] (setting [21]), 1.7%.
